Data on 1 compound can be found in US20150307938A1, “METHOD TO IDENTIFY A NOVEL CLASS OF IMMUNOLOGIC ADJUVANTS” (Lancell, L.L.C., priority 2011, published 2015).

For this assay, the system named is PR8. Also on record: species or system mice. The settings on record: mouse, in vivo.

On to `CCCCOC(=O)c1ccccc1C(=O)OCCCC` [DBP, dibutylphthalate], for which the “survival of a lethal dose of virus” value is reported as “mice survived a lethal dose of virus”.
